{
  "source": "paper PMC12301304",
  "about": "(Frontiers in Pharmacology, 2025)",
  "key": {"CYP2b1": {"target": "T1, CYP2b1 (Rattus norvegicus, UniProt P00176)", "T1 sequence (P00176 1-491)": "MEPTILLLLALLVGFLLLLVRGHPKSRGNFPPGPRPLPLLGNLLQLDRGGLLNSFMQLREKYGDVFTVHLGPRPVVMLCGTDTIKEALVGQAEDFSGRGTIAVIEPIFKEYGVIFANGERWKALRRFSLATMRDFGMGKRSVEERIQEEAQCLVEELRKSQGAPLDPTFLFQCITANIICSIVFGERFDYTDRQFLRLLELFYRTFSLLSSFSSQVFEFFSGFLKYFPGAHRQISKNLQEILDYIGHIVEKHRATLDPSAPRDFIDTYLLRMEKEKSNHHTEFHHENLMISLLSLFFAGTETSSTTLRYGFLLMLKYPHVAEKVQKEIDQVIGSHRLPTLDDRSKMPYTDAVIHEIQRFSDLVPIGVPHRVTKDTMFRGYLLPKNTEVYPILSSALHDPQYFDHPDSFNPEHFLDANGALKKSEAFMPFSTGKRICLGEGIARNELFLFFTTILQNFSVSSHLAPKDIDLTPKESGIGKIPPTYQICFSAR", "test": "RLM incubation: metabolic clearance rate of bupropion (CYP2b1)", "settings": "RLM 0.5 mg/mL, 30 min 37°C, inhibitor added, blank control 7.92 ± 0.60, n = 3", "procedure": "(§1) The effect of the Zhicaowu–Hezi combination on CYP450 enzymes in RLM was evaluated by assessing the metabolic clearance rates of theophylline, metoprolol, bupropion, mephenytoin (CYP2c13), chlorzoxazone, testosterone, and diclofenac.\n(§2) On day 15, the rats were humanely euthanized, and liver tissues were excised for microsomal preparation. […] Livers from each group were repeatedly washed with ice-cold phosphate buffered saline (PBS). […] Subsequently, they were blotted dry with filter paper, weighed, and homogenized by adding 4 mL of ice-cold PBS per gram of liver tissue. The mixture was homogenized in an ice bath. The liver homogenate was subjected to centrifugation at 10,000 RPM for 20 min at 4°C. The resulting supernatant was then combined with an ice-cold 88-mmol/L CaCl2 solution at a 1:1 ratio, and the mixture was homogenized in an ice bath for 5 min. The resulting solution was then centrifuged at 25,000 × g for 30 min at 4°C. The supernatant was discarded and the precipitate was repeatedly resuspended in PBS–20% glycerol buffer. The precipitate was then stored in a separate bottle at −80°C for backup. The protein concentration of the prepared RLM was determined using a bicinchoninic acid protein assay kit.\n(§3) Preincubation was conducted for 5 min in a water bath at 37°C, after which NADPH (1 mmol/L) was added, and incubation continued for 30 min at 37°C. Once the incubation period elapsed, the reaction was terminated by the addition of an ice-cold IS-containing acetonitrile solution. The samples were vortexed for 2 min and centrifuged at 15,000 RPM for 10 min. The resulting supernatant was filtered through a 0.22-μm organic microporous membrane, and 20 μL of the filtered solution was injected into the HPLC assay. To prevent the organic solvents from inducing or inhibiting the enzyme, the volume fraction of organic solvents in the entire incubation system was maintained at 1%. […] The inhibitor group was added with corresponding inhibitor, while all other procedures remained identical."}, "CYP1a2": {"target": "T2, CYP1a2 (Rattus norvegicus, UniProt P04799)", "T2 sequence (P04799 1-513)": "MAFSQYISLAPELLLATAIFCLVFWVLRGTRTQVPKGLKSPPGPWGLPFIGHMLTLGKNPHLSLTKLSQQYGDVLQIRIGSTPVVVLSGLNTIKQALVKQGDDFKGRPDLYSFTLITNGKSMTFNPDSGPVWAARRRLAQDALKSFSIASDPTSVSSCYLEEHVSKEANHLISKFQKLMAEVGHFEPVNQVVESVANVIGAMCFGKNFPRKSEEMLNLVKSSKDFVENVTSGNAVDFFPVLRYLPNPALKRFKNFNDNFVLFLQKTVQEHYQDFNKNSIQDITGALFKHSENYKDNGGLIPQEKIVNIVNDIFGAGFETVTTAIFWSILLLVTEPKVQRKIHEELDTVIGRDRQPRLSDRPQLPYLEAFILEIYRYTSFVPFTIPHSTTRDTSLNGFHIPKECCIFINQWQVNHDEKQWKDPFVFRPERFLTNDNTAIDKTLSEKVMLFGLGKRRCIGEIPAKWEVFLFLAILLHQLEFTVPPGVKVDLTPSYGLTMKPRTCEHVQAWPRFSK", "settings": "microsomes", "procedure": "as §1, §2, §3"}, "CYP2d2": {"target": "T3, CYP2d2 (Rattus norvegicus, UniProt P10634)", "T3 sequence (P10634 1-500)": "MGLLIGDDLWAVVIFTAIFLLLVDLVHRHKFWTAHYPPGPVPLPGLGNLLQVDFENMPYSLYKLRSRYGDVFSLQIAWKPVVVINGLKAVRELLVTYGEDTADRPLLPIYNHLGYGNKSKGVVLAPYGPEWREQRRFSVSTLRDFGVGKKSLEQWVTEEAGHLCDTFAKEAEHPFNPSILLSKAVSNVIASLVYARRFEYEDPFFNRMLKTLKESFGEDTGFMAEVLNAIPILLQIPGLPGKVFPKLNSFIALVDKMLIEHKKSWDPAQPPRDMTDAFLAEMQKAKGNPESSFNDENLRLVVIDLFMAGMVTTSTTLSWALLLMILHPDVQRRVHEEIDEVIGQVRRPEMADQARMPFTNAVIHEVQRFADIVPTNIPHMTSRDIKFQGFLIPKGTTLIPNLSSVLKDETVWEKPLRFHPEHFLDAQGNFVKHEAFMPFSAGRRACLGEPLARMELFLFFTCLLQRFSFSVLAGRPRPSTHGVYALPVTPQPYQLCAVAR", "procedure": "as §1, §2, §3"}, "CYP3a1": {"target": "T4, CYP3a1 (Rattus norvegicus, UniProt P04800)", "T4 sequence (P04800 1-504)": "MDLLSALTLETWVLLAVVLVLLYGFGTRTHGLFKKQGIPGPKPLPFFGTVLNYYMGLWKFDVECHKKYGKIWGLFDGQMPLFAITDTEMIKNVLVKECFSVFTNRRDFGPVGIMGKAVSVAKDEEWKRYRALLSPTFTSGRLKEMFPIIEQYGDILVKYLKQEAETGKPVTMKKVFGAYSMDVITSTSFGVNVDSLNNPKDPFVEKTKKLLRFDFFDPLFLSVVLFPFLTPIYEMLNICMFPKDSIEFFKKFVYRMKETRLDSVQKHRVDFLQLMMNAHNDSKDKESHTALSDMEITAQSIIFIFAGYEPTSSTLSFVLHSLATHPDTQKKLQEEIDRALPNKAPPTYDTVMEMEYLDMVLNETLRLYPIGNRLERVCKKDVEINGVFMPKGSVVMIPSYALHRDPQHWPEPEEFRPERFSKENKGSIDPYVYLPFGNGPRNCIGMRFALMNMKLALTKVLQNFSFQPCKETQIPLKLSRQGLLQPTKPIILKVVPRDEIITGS", "procedure": "as §1, §2, §3"}, "CYP2c13": {"target": "T5, CYP2c13 (Rattus norvegicus, UniProt P20814)", "T5 sequence (P20814 1-490)": "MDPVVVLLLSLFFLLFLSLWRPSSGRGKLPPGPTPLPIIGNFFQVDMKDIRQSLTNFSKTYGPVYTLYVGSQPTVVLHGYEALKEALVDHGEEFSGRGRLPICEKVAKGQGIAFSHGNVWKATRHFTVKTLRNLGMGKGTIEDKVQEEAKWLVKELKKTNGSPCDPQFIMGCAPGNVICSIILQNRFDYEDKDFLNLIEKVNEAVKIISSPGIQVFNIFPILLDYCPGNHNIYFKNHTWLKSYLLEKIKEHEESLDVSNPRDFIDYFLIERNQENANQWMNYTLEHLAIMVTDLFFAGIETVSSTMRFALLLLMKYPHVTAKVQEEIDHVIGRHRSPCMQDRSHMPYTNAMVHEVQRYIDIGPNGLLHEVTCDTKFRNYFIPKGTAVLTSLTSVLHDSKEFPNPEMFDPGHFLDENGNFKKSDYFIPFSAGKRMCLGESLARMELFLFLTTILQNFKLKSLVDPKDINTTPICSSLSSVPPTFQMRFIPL", "test": "RLM incubation: metabolic clearance rate of mephenytoin (CYP2c13)", "settings": "RLM 0.5 mg/mL, 30 min 37°C, inhibitor added, blank control 15.97 ± 0.68, n = 3", "procedure": "as §1, §2, §3"}, "CYP2e1": {"target": "CYP2e1 (Rattus norvegicus, UniProt P05182)", "sequence (P05182 whole entry)": "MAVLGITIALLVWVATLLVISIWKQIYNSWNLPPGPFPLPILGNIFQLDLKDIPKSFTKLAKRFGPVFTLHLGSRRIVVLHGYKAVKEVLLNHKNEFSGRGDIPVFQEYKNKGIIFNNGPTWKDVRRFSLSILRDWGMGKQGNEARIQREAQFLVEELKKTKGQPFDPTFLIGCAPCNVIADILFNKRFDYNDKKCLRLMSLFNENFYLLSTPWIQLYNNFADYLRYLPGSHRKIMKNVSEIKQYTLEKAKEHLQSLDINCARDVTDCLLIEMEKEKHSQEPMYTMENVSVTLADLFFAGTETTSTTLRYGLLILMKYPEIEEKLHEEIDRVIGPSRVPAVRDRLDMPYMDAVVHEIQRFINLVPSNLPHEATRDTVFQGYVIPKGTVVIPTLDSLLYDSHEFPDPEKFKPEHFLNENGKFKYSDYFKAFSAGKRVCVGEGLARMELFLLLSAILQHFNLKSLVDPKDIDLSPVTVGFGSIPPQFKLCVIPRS", "test": "RLM incubation: metabolic clearance rate of chlorzoxazone (CYP2e1)", "settings": "RLM 0.5 mg/mL, 30 min 37°C, inhibitor added, blank control 15.80 ± 0.34, n = 3", "procedure": "as §1, §2\nPreincubation was conducted for 5 min in a water bath at 37°C, after which NADPH (1 mmol/L) was added, and incubation continued for 30 min at 37°C. […]"}, "CYP2c11": {"target": "T6, CYP2c11 (Rattus norvegicus, UniProt P08683)", "T6 sequence (P08683 1-500)": "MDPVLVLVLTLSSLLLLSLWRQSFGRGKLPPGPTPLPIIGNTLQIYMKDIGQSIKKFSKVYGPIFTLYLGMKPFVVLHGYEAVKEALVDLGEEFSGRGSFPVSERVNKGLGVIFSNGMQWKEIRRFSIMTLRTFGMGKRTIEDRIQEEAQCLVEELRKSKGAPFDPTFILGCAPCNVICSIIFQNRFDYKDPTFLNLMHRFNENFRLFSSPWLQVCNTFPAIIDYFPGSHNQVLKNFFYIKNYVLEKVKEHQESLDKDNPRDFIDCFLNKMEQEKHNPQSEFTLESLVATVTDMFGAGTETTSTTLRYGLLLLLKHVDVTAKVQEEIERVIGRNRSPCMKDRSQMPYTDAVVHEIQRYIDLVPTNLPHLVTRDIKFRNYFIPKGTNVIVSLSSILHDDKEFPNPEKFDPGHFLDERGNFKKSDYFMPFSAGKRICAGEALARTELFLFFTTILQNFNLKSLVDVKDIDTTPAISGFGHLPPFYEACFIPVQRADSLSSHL", "settings": "RLM 0.5 mg/mL, 30 min 37°C, inhibitor added, probe diclofenac; blank control 21.12 ± 3.80; n = 3", "procedure": "as §1, §2, §3"}, "[1]": {"settings": "ref Jin et al., 2024, cited from earlier work"}},
  "note": "Like-named read-outs stand apart in the source and are kept apart here.",
  "data": [
    {"molecule": "CC(=O)N1CCN(c2ccc(OCC3COC(Cn4ccnc4)(c4ccc(Cl)cc4Cl)O3)cc2)CC1", "note": "(stereo not shown) [Ketoconazole, ketoconazole]", "values": [
      {"measurement": "CYP2b1(%) metabolic clearance rate of probe drug", "setting": "CYP2b1", "value": "7.11 ± 0.17", "unit": "%"},
      {"measurement": "CYP1a2 (%) metabolic clearance rate of probe drug", "setting": "CYP1a2", "value": "36.04 ± 1.71", "unit": "%"},
      {"measurement": "CYP2d2 (%) metabolic clearance rate of probe drug", "setting": "CYP2d2", "value": "12.73 ± 1.11", "unit": "%"},
      {"measurement": "CYP3a1 (%) metabolic clearance rate of probe drug", "setting": "CYP3a1", "value": "5.45 ± 2.49", "unit": "%"},
      {"measurement": "CYP2c13(%) metabolic clearance rate of probe drug", "setting": "CYP2c13", "value": "17.26 ± 1.08", "unit": "%"}
    ]},
    {"molecule": "Nc1ccc(S(=O)(=O)Nc2ccnn2-c2ccccc2)cc1", "note": "[Sulfaphenazolum]", "values": [
      {"measurement": "CYP2e1 (%) metabolic clearance rate of probe drug", "setting": "CYP2e1", "value": "16.11 ± 0.18", "unit": "%"},
      {"measurement": "CYP2b1(%) metabolic clearance rate of probe drug", "setting": "CYP2b1", "value": "7.74 ± 0.98", "unit": "%"},
      {"measurement": "CYP2d2 (%) metabolic clearance rate of probe drug", "setting": "CYP2d2; RLM 0.5 mg/mL, 30 min 37°C, inhibitor added, probe metoprolol, blank control […] ± 2.12, n = 3", "value": "13.50 ± 0.30", "unit": "%"},
      {"measurement": "CYP3a1 (%) metabolic clearance rate of probe drug", "setting": "CYP3a1; RLM 0.5 mg/mL, 30 min 37°C, inhibitor added, probe testosterone, blank control 25.04 ± 1.93, n = 3", "value": "25.69 ± 1.69", "unit": "%"},
      {"measurement": "CYP2c11(%) metabolic clearance rate of probe drug", "setting": "CYP2c11", "value": "6.16 ± 0.65", "unit": "%"},
      {"measurement": "CYP2c13(%) metabolic clearance rate of probe drug", "setting": "CYP2c13", "value": "16.47 ± 1.34", "unit": "%"}
    ]},
    {"molecule": "CC1(C)[C@@H](O[C@H]2O[C@H](C(=O)O)[C@@H](O)[C@H](O)[C@H]2O[C@@H]2O[C@H](C(=O)O)[C@@H](O)[C@H](O)[C@H]2O)CC[C@]2(C)[C@H]3C(=O)C=C4[C@@H]5C[C@@](C)(C(=O)O)CC[C@]5(C)CC[C@@]4(C)[C@]3(C)CC[C@@H]12", "note": "[glycyrrhizin]", "values": [
      {"measurement": "reduction of systemic exposure to aconitine", "setting": "[1]; glycyrrhizin by intravenous injection", "value": 33, "unit": "%"},
      {"measurement": "reduction of systemic exposure to aconitine", "setting": "[1]; glycyrrhizin by oral gavage", "value": 27, "unit": "%"}
    ]}
  ]
}
